Test [1] deals with allodynia induced by ligature of the sciatic nerve in rats. Briefly: Ligature of the sciatic nerve in rats (allodynia, von Frey). It counts as in vivo. Particulars: one hour after administration, vs vehicle. How it is done:
Male CD rats weighing 200-250 g on arrival were used.
The allodynia was induced by ligature under anaesthesia of the sciatic nerve of the left hind leg [Seltzer Z, Dubner R, Shir Y. A novel behavioural model of neuropathic pain disorders produced in rats by partial sciatic nerve injury. Pain 1990; 43: 205-218; Bennet G J, Xie Y K. A peripheral mononeuropathy in rat that produces disorders of pain sensation like those seen in man. Pain 1988; 33: 87-107].
The pain threshold was measured with a von Frey machine, which makes it possible, by applying a gradual increase in pressure to the paw of the left hind leg of the rat, to record the nociceptive response, expressed in grams, corresponding to the moment at which the animal withdraws the leg.
After-treatment measurement was made at one hour following administration. The analgesic activity is evaluated as % reversal.

Test [2] concerns acetic acid-induced writhing in mice. Briefly: Acetic acid-induced writhing test in mice. Particulars: vs vehicle. (In general: Writhing tests count abdominal constrictions after an irritant is injected.)
Procedure: (§1) The test compounds were evaluated in the model of acetic acid-induced writhing in mice (Stock J. L. et al., J. Clin. Inv. 2001, 107: 325 331).
(§2) Writhing test is a chemical method used to induce pain of peripheral origin by injection of acetic acid in mice. Analgesic activity is inferred from decrease in the frequency of writhing.
(§3) This test allowed evaluation of the antinociceptive activity of the compounds of the invention in a model of inflammatory pain.
(§4) Writhing is defined as a stretch, tension to one side, extension of hind legs, contraction of the abdomen so that the abdomen of mice touches the floor, turning the trunk (twist).
(§5) Male CD-1 mice weighing 20-25 g were used for the test.
(§6) One hour after the treatment, an intraperitoneal injection of acetic acid (0.7% v/v in physiological saline, 16 μl/g of body weight) was given to the mice to induce inflammatory pain and to check the effects of the test compound on the nociceptive response.
(§7) Five minutes after the administration of acetic acid and for the following 10 minutes the number of writhes was measured, which represents the parameter for evaluation of the nociceptive response. The analgesic activity is evaluated as % inhibition.
The test system is the same in test [3]. Particulars: mouse, in vivo, po.
Procedure: as §1, §2, §3, §4, §5, §6, §7

Usually ED50 stands for the dose that gives a 50% effect, or the effect in half of the subjects.

On to `NCC1(CC(=O)O)CCCCC1` [Gabapentin, gabapentin], for which the Reversal % in test [1] (3.0 mg/kg) is 3.7%; in test [1] (100 mg/kg (effective amount)) it was 37.0%. The “Writhing number reduction %” value turned out to be 27.1% in test [2] (Table 2 TEST 1 (FIG. 2a), 1.5 mg/kg oral); 38.1% in test [2] (Table 2 TEST 2 (FIG. 2b), 5 mg/kg oral); 45.9% in test [2] (Table 2 TEST 3 (FIG. 2c), 15 mg/kg oral); 29.2% in test [2] (Table 3 TEST 1 RATIO 1:20, 1.5 mg/kg oral); 27.1% in test [2] (Table 3 TEST 2 RATIO 1:10, 1.5 mg/kg oral); 22.4% in test [2] (Table 3 TEST 3 RATIO 1:5, 0.75 mg/kg oral). In addition, the “Writhing number reduction %” value in test [2] (Table 3 TEST 4 RATIO 1:1, 0.15 mg/kg gabapentin oral) turned out to be 28.3%; in test [2] (Table 3 TEST 5 RATIO 5:1, 0.15 mg/kg oral) it was 30.2%; in test [2] (Table 3 TEST 6 RATIO 10:1, 0.15 mg/kg oral), 27.2%.
For `O=c1n(CCCN2CCN(c3cccc(Cl)c3)CC2)nc2ccccn12` [Trazodone, trazodone], the Reversal % in test [1] (0.3 mg/kg) turned out to be 3.1%. The 50% effect level in test [3] (ED50) was put at a dose of 1.2 mg/kg. The “Writhing number reduction %” value in test [2] (Table 2 TEST 1 (FIG. 2a), 0.15 mg/kg oral) is 16.0%; in test [2] (Table 2 TEST 2 (FIG. 2b), 0.5 mg/kg oral), 44.4%; in test [2] (Table 2 TEST 3 (FIG. 2c), 1.5 mg/kg oral), 57.1%; in test [2] (Table 3 TEST 1 RATIO 1:20, 0.075 mg/kg oral), 2.1%; in test [2] (Table 3 TEST 2 RATIO 1:10, 0.15 mg/kg oral), 16.0%; in test [2] (Table 3 TEST 3 RATIO 1:5, 0.15 mg/kg oral), 16.3%. The “Writhing number reduction %” value in test [2] (Table 3 TEST 4 RATIO 1:1, 0.15 mg/kg trazodone oral) is 12.2%; in test [2] (Table 3 TEST 5 RATIO 5:1, 0.75 mg/kg oral), 57.4%; in test [2] (Table 3 TEST 6 RATIO 10:1, 1.5 mg/kg oral), 59.7%.

The values above are taken from US11752147B2, “Pharmaceutical composition for the treatment of pain” (AZIENDE CHIMICHE RIUNITE ANGELINI FRANCESCO A.C.R.A.F. …, priority 2015, dated 2023).
